The text below walks through data of patent US20070298106A1, “Sustained Release Formulation Containing Selective Serotonin Reuptake Inhibitor and Method for the Preparation Thereof” (Amorepacific Corporation, priority 2004, published 2007).

A short description of this series: solubility of the drug. In kind it is physicochemical.

Each structure is given as a SMILES string. Structures can show the parent of a compound that is named as a salt.

In turn, `Fc1ccc([C@@H]2CCNC[C@H]2COc2ccc3c(c2)OCO3)cc1` [Paroxetine hydrochloride] showed a solubility of 5400 µg/mL.

The solubility is the dissolved amount per volume that the medium holds. Read a high solubility as much dissolved substance.
